Earlier results, collected in patent publication US6503396B2 (priority 2000, dated 2003).

Key:
ovarian cancer = ovarian cancer patients who exhibited no response to conventional anti-cancer drugs
breast cancer = breast cancer patients who exhibited no response to conventional anti-cancer drugs
lung cancer = lung cancer patients who exhibited no response to conventional anti-cancer drugs

**Q.** What does the source list for `CC(=O)O[C@H]1C(=O)[C@@]2(C)[C@H]([C@H](OC(=O)c3ccccc3)[C@]3(O)C[C@H](OC(=O)[C@H](O)[C@@H](NC(=O)c4ccccc4)c4ccccc4)C(C)=C1C3(C)C)[C@]1(OC(C)=O)CO[C@@H]1C[C@@H]2O` [taxol]?
**A.** response rate to taxol (ovarian cancer): 30%; response rate to taxol (breast cancer): 50%; response rate to taxol (lung cancer): 20%
